Measured values as given in patent US20250250308A1, “METHODS AND COMPOSITIONS WITH ANTIFUNGAL ACTIVITY” (priority 2022, published 2025).
Values joined by “and” are separate entries in the source; they are usually repeats but may differ in a detail not shown here. Equal values may be shown once. “Also recorded” adds a separate entry of the source. Square brackets hold non-standard residues; d marks the D form. Peptide text beside a SMILES is read from it.

Experiments:
[1] = Peptide serum stability assay; assay type: in vitro ADME; details: 10% human serum, 37° C., HPLC; read-out: Peptide remaining after 24 hours in human serum
Description: Peptide serum stability assay. One mL of RPMI supplemented with 10% (v/v) of human serum (type AB) were aliquoted and temperature-equilibrated at 37° C. for 15 min before adding a concentrated stock peptide solution resulting in a final peptide concentration of 100 μM. For each time point, 100 μL of the reaction solution was removed and added to 200 μL 96% ethanol for precipitation of serum proteins. The sample was cooled (4° C.) for 15 min and then spun at 18,000 g for 2 min to pellet the precipitated serum proteins. The reaction supernatant was analyzed using HPLC with absorbance detected at 280 nm. The peptide peak was detected first without serum treatment to assess the area under the curve for the peptide of interest. At each time point the area under the curve was calculated by HPLC and then divided by the untreated peptide area under the curve to determine the percent remaining.

C. albicans [2] = assay: Killing of C. elegans by C. albicans (survival of infected nematodes); assay type: in vivo; details: for Protection of C. elegans from C. albicans infection (survival): 1 nM peptide; for Median survival: C. albicans infected C. elegans exposed to 1 nM peptide, one value per trial
Description: The α7 helix is sufficient to protect C. elegans and inhibit surface adhesion. Based on this structural characterization, fragments of EntV were examined to identify those structural moieties that retained antifungal activity. Synthetic peptides were generated of each of the four alpha helices (plus two flanking amino acids) from the active C-terminus of EntV—α4, α5, α6 and α7 (FIG. 1A) as well as an α4-α6 construct. The peptides were tested for their ability to protect C. elegans against C. albicans infection as established in previous work (Cruz et al., 2013; Graham et al., 2017).
Killing of C. elegans by C. albicans. The methodology used for the C. elegans infection assays was performed, with a few modifications, as described ((Breger et al., 2007; Cruz et al., 2013; Graham et al., 2017; Peleg et al., 2008)). Briefly, C. elegans glp-4(bn2); sek-1(km-4) (Breger et al., 2007) nematodes were propagated and maintained on E. coli strain OP50(Brenner, 1974) that was seeded onto nematode growth medium (NGM) agar using standard techniques (Hope, 1999). To synchronize the animals, L1 stage worms on non-starved plates were washed off, filtered through a 10 μm filter (pluriSelect, pluriStrainer 10 μm), harvested by centrifugation, transferred to OP50 seeded plates, and grown to the L4 stage. To prepare the infection plates, C. albicans strain […] (Gillum et al., 1984) was grown in YPD broth for 24 h at 37° C. with agitation. 500 μl of the culture was plated onto BHI solid medium containing gentamycin (10 μg/ml) and grown for 24 h at 37° C. The synchronized, L4 C. elegans were washed off the OP50 plates in 2 ml sterile M9 buffer and washed once, centrifuging at 750×g for 30 seconds to collect animals. Animals were infected by placing them on the SC5314 lawn for 4 h at 25° C. Following this exposure, they were washed off the plate and washed four times with 2 ml of sterile M9. The nematodes were then pipetted (˜30 per well with 2 wells per condition for a total of ˜60 worms assayed) into six-well plates with 2 ml of liquid medium (20% BHI broth and 80% M9) containing the indicated concentrations of test compounds. Plates were incubated at 25° C., and worm death was scored daily. Kaplan-Meier survival curves were generated and analyzed as described in the quantification and statistical analysis section.

C. albicans [3] = assay: Mouse OPC (oropharyngeal candidiasis) model; assay type: in vivo; details: 100 nM in drinking water for 5 days following inoculation
Description: Mouse OPC model. The efficacy of EntV fragments were tested in the OPC model as described (Graham et al., 2017; Solis and Filler, 2012). Mice were immunosuppressed by injecting 225 mg/kg cortisone acetate subcutaneously 1 d before inoculation, and subsequently on days 1 and 3 of the infection. Group size was 6-8. To prepare the inoculum, 1 ml of C. albicans (SC5314) overnight culture grown at 30° C. in YPD broth was washed twice in PBS before resuspension in sterile Hanks' balanced salt solution (HBSS) at a concentration of 1×10^6 cells/mL. Calcium alginate swabs were soaked in this inoculum for 5 minutes prior to inoculation. Mice were anesthetized using ketamine and xylazine and placed on pre-warmed isothermal pads and the swabs were placed sublingually for 75 min. Mice were given additional doses of ketamine (50 mg/kg), as necessary. After inoculation, mice were given drinking water with EntV fragments or DMSO (0.01%) in the drinking water ad libitum. Mice were euthanized at 5 d after inoculation, unless noted. The tongues were excised and cut in half laterally for tissue histology and assessment of fungal burden.
For tissue histology the tongue sample was placed in 10% zinc-buffered formalin overnight and stored in 80% ethanol, before embedding in paraffin. For each tongue, 5 μm sections were prepared using a Leica microtome and stained using Periodic Acid-Schiff (PAS) stain. Epithelial invasion was measured from 40× images taken of the entire tissue section of each tongue half with the total area of epithelium and infected epithelium were measured using ImageJ (version 1.6). Measurements were totaled and expressed as a percentage of total infected epithelium relative to the entire epithelial area (Graham et al., 2017; Moyes et al., 2016).
For examination of fungal burden, qPCR was used by amplifying a 269-bp fragment of the internal transcribed spacer 2 (ITS2) between the 5.8S and 28S ribosomal RNA genes of C. albicans (Graham et al., 2017; Khot et al., 2009). DNA was extracted from homogenized tongue tissue using the Yeast DNA Extraction Kit (Thermo Scientific) according to the protocol with minor modifications. The ITS2 fragment was amplified by qPCR was performed with a CFX96 Real-Time System with a C1000 Touch thermal cycler (BioRad). C. albicans gDNA was quantified using FastStart Universal SYBR Green master mix with ROX (Roche). To screen for contamination and background fluorescence during the qPCR amplification, no template controls were used.

Cryptococcus neoformans = assay: High-throughput Sytox Orange C. elegans infection assay, C. neoformans; assay type: in vivo; details: five days of infection; vs. DMSO control
Description: FIGS. 15A-15D: Secondary testing of gain-of-function variants from screen. (FIG. 15A) Survival over time of C. elegans infected with C. albicans and exposed to 1 nM of the indicated peptides. Statistical differences in survival were compared to animals in the exposure condition on the right of the legend (12aa-WT) by Mantel-Cox log rank analysis. An n of 30 animals was used and one representative trial is shown. (FIG. 15B) Percent survival as measured by the high-throughput Sytox Orange assay following five days of infection with C. albicans is shown. Means were calculated with the error bars representing the SEM. Statistical differences in survival were compared to animals in the untreated condition (DMSO) by one-way ANOVA followed by Dunnett's multiple comparison test. An n of 30 animals was used per experimental group. (FIG. 15C) Adhesion of C. albicans to tissue-culture treated plates following incubation with 10 nM of the indicated peptides is shown. […] Means were calculated with the error bars representing the SEM. Statistical significance in comparison to the DMSO control group was determined using one-way ANOVA followed by Tukey's multiple comparison test. […] (FIG. 15D) Percent survival as measured by the high-throughput Sytox Orange assay following five days of infection with C. neoformans is shown. Means were calculated with the error bars representing the SEM. […]

C. albicans [4] = assay: High-throughput Sytox Orange C. elegans infection assay, C. albicans; assay type: in vivo; details: five days of infection; vs. DMSO control
Description: FIGS. 15A-15D: Secondary testing of gain-of-function variants from screen. (FIG. 15A) Survival over time of C. elegans infected with C. albicans and exposed to 1 nM of the indicated peptides. Statistical differences in survival were compared to animals in the exposure condition on the right of the legend (12aa-WT) by Mantel-Cox log rank analysis. An n of 30 animals was used and one representative trial is shown. (FIG. 15B) Percent survival as measured by the high-throughput Sytox Orange assay following five days of infection with C. albicans is shown. Means were calculated with the error bars representing the SEM. Statistical differences in survival were compared to animals in the untreated condition (DMSO) by one-way ANOVA followed by Dunnett's multiple comparison test. An n of 30 animals was used per experimental group. (FIG. 15C) Adhesion of C. albicans to tissue-culture treated plates following incubation with 10 nM of the indicated peptides is shown. A non-adherent strain (Δefg1/Δcph1) was used as a control. Means were calculated with the error bars representing the SEM. Statistical significance in comparison to the DMSO control group was determined using one-way ANOVA followed by Tukey's multiple comparison test. An n of three biological replicates, each with four technical replicates, was used. (FIG. 15D) Percent survival as measured by the high-throughput Sytox Orange assay following five days of infection with C. neoformans is shown. Means were calculated with the error bars representing the SEM. Statistical differences in survival were compared to animals in the untreated condition (DMSO) by one-way ANOVA followed by Dunnett's multiple comparison test. An n of 30 animals was used per experimental group.
High-throughput screening of this library was performed by employing established assays to assess antifungal agent efficacy. […] By using these assays in concert, each individual peptide was assessed using two approaches that probe different aspects of C. albicans virulence.

C. auris = assay: Survival of C. elegans infected with C. auris; assay type: in vivo; details: 1 nM peptide
Description: FIGS. 6A-6D: EntV peptides have activity against many fungal species and strains. Survival over time of C. elegans infected with C. auris, (FIG. 6A), C. neoformans, (FIG. 6B), and C. albicans, (FIG. 6C), paired clinical isolates before (AzS: fluconazole-susceptability) and after gaining fluconazole resistance (AzR), (FIG. 6D). Peptides were added at 1 nM and fluconazole at 4 ug/ml. Statistical differences in survival were compared to animals to the DMSO vehicle control by Mantel-Cox log rank analysis. An n of 60 was used and one representative trial is shown. Exact p values from top to bottom: (FIG. 6A) <0.0001, <0.0001, (FIG. 6B) <0.0001, <0.0001, (FIG. 6C) 0.0013, 0.0004, 0.0035, (FIG. 6D) 0.0050, 0.0040, 0.5539.
EntV peptides have activity against other fungal species and strains. […] Paired clinical isolates of C. albicans, in which fluconazole-resistance had been gained following in-patient evolution were tested and it was determined that animals infected with both the original strain as well as the fluconazole-resistant descendent were protected by EntV ([…]).
Killing of C. elegans by C. albicans. […] Plates were incubated at 25° C., and worm death was scored daily. Kaplan-Meier survival curves were generated and analyzed as described in the quantification and statistical analysis section.

Compound	Protection of C. elegans from C. albicans infection (survival) (C. albicans [2])	Fungal burden in the tongue (C. albicans DNA by qPCR) (C. albicans [3])	Hyphal (epithelial) invasion of the tongue (C. albicans [3])	Median survival (C. albicans [2])	Survival of C. elegans by Sytox Orange assay, C. albicans (C. albicans [4])	also measured
CC(C)C[C@@H](NC(=O)[C@@H](C)NC(=O)[C@@H](CC(C)C)NC(=O)[C@@H](CCC(N)=O)NC(=O)CNC(=O)[C@@H](C)NC(=O)[C@H](N)C(C)C)C(=O)N[C@H](Cc1c[nH]c2ccccc12)C(=O)N[C@H](C)C(=O)N[C@@H](C(=O)N[C@H](CCC(N)=O)C(=O)N[C@H](CS)C(N)=O)C(C)C [12aa D-form peptide] (H-[dV][dA]G[dQ][dL][dA][dL][dW][dA][dV][dQ][dC]-NH2)	remained as effective as the original in protecting C. elegans against infection with C. albicans					remaining at 24 h, 100 μM [1]: ~35%
AGQLALWAVQC [11aa]		reduced fungal burden in the OPC model, but not to the same degree as the 12-mer	some reduction	9 days and 10 days		
GQLALWAVQC [10aa]		reduced fungal burden in the OPC model, but not to the same degree as the 12-mer	some reduction	8 days and 9 days		Survival of C. elegans by Sytox Orange assay, C. neoformans (Cryptococcus neoformans): not effective
LVLAFWAVVC [P3]	as effective in protecting the animals as the original 12aa peptide				statistically significant antifungal activity	
TNAAAAQQGGIICLLVVWLS [α7 - disrupt]				6 days		
TNAIIVAGQLALWAVQCG [α7]	protected C. elegans from C. albicans infection as well or better than full-length, active EntV^68			10.5 days and 12 days and 11 days and 10 days and 13 days and 14 days		Survival of C. elegans infected with C. auris (C. auris): protected animals from death
TNVGALWICGLAVIQAAQLS [α7 - random]				7 days		
VLLALWALVC [P5]	as effective in protecting the animals as the original 12aa peptide					
VQLALWAVQC [P4]	as effective in protecting the animals as the original 12aa peptide	significantly reduced; also recorded: more effective than P1 in reducing fungal burden	significantly reduced		statistically significant antifungal activity	
VVLALWAVQC [P1]	as effective in protecting the animals as the original 12aa peptide	significantly reduced	significantly reduced		statistically significant antifungal activity	
